# Earlier results, collected in PubChem BioAssay AID1259409 (Chemical Carcinogenesis Research Information System (CCRIS), 2018).
# Test system: rodent chemically induced tumor inhibition, incidence and multiplicity
# Assay: CCRIS tumor inhibitor studies
# Conditions: Dose [Inhibitor]: 0, Route [Inhibitor]: ORAL, Species: RAT, Promoter: NONE USED
compound,measurement,setting,value
CCCCCCCCCCCCC(=O)COC1=C(O)C(=O)O[C@@H]1[C@@H](O)CO,"tumour outcome (control, treated, inhibition, significance)","Carcinogen: 2-AMINO-1-METHYL-6-PHENYLIMIDAZO[4,5-B]PYRIDINE, 105650-23-5, 1% IN DIET FOR 52 WK CONCURRENTLY WITH CARCINOGEN TREATMENT (STUDY DURATION: 52 WK), Strain/Sex: F344/FEMALE, Target Tissue: Type of Lesion: LARGE INTESTINE: ADENOMA OR CARCINOMA, Dose [Carcinogen]: 0.02% IN DIET FOR 52 WK","2/18 (11%), 1/20 (5%), 55%, not significant"
same,"tumour outcome (control, treated, inhibition, significance)","Carcinogen: 2-AMINO-1-METHYL-6-PHENYLIMIDAZO[4,5-B]PYRIDINE, 105650-23-5, 1% IN DIET FOR 52 WK CONCURRENTLY WITH CARCINOGEN TREATMENT (STUDY DURATION: 52 WK), Strain/Sex: F344/FEMALE, Target Tissue: Type of Lesion: MAMMARY GLAND: ADENOCARCINOMA, Dose [Carcinogen]: 0.02% IN DIET FOR 52 WK","8/20 (40%), 5/21 (24%), 40%, not significant"
same,"tumour outcome (control, treated, inhibition, significance)","Carcinogen: DIETHYLNITROSAMINE, 55-18-5, N-METHYL-N-NITROSOUREA, 684-93-5, N-BUTYL-N-(4-HYDROXYBUTYL)NITROSAMINE, 3817-11-6, DIMETHY, Carcinogen: DIETHYLNITROSAMINE, 55-18-5, N-METHYL-N-NITROSOUREA, 684-93-5, N-BUTYL-N-(4-HYDROXYBUTYL)NITROSAMINE, 3817-11-6, DIMETHY, 1% IN THE DIET FOR 24 WK BEGINNING 1 D POST CARCINOGEN TREATMENT (STUDY DURATION: 28 WK), Strain/Sex: F344/MALE, Target Tissue: Type of Lesion: LARGE INTESTINE: CARCINOMA, Dose [Carcinogen]: 100 MG/KG BW DEN ONCE FOLLOWED BY 20 MG/KG BW MNU 4 TIMES AND 0.05% BBN IN DRINKING WATER DURING FIRST 2 WK THEN 40 MG/K","7%, 0%, 100%, not significant"
same,"tumour outcome (control, treated, inhibition, significance)","Carcinogen: DIETHYLNITROSAMINE, 55-18-5, N-METHYL-N-NITROSOUREA, 684-93-5, N-BUTYL-N-(4-HYDROXYBUTYL)NITROSAMINE, 3817-11-6, DIMETHY, Carcinogen: DIETHYLNITROSAMINE, 55-18-5, N-METHYL-N-NITROSOUREA, 684-93-5, N-BUTYL-N-(4-HYDROXYBUTYL)NITROSAMINE, 3817-11-6, DIMETHY, 1% IN THE DIET FOR 24 WK BEGINNING 1 DAY POST CARCINOGEN TREATMENT (STUDY DURATION: 28 WK ), Strain/Sex: F344/MALE, Target Tissue: Type of Lesion: URINARY BLADDER: CARCINOMA, Dose [Carcinogen]: 100 MG/KG BW DEN ONCE FOLLOWED BY 20 MG/KG BW MNU 4 TIMES AND 0.05% BBN IN DRINKING WATER DURING FIRST 2 WK THEN 40 MG/K","7%, 0%, 100%, not significant"
same,"tumour outcome (control, treated, inhibition, significance)","Carcinogen: DIETHYLNITROSAMINE, 55-18-5, N-METHYL-N-NITROSOUREA, 684-93-5, N-BUTYL-N-(4-HYDROXYBUTYL)NITROSAMINE, 3817-11-6, DIMETHY, Carcinogen: DIETHYLNITROSAMINE, 55-18-5, N-METHYL-N-NITROSOUREA, 684-93-5, N-BUTYL-N-(4-HYDROXYBUTYL)NITROSAMINE, 3817-11-6, DIMETHY, 1% IN THE DIET FOR 24 WK BEGINNING 1 DAY POST CARCINOGEN TREATMENT (STUDY DURATION: 28 WK), Strain/Sex: F344/MALE, Target Tissue: Type of Lesion: LARGE INTESTINE: ADENOMA, Dose [Carcinogen]: 100 MG/KG BW DEN ONCE FOLLOWED BY 20 MG/KG BW MNU 4 TIMES AND 0.05% BBN IN DRINKING WATER DURING FIRST 2 WK THEN 40 MG/K","27%, 13%, 52%, not significant"
same,"tumour outcome (control, treated, inhibition, significance)","Carcinogen: DIETHYLNITROSAMINE, 55-18-5, N-METHYL-N-NITROSOUREA, 684-93-5, N-BUTYL-N-(4-HYDROXYBUTYL)NITROSAMINE, 3817-11-6, DIMETHY, Carcinogen: DIETHYLNITROSAMINE, 55-18-5, N-METHYL-N-NITROSOUREA, 684-93-5, N-BUTYL-N-(4-HYDROXYBUTYL)NITROSAMINE, 3817-11-6, DIMETHY, 1% IN THE DIET FOR 24 WK BEGINNING 1 DAY POST CARCINOGEN TREATMENT (STUDY DURATION: 28 WK), Strain/Sex: F344/MALE, Target Tissue: Type of Lesion: SMALL INTESTINE: ADENOMA, Dose [Carcinogen]: 100 MG/KG BW DEN ONCE FOLLOWED BY 20 MG/KG BW MNU 4 TIMES AND 0.05% BBN IN DRINKING WATER DURING FIRST 2 WK THEN 40 MG/K","33%, 20%, 39%, not significant"
same,"tumour outcome (control, treated, inhibition, significance)","Carcinogen: DIETHYLNITROSAMINE, 55-18-5, N-METHYL-N-NITROSOUREA, 684-93-5, N-BUTYL-N-(4-HYDROXYBUTYL)NITROSAMINE, 3817-11-6, DIMETHY, Carcinogen: DIETHYLNITROSAMINE, 55-18-5, N-METHYL-N-NITROSOUREA, 684-93-5, N-BUTYL-N-(4-HYDROXYBUTYL)NITROSAMINE, 3817-11-6, DIMETHY, 1% IN THE DIET FOR 24 WK BEGINNING 1 DAY POST CARCINOGEN TREATMENT (STUDY DURATION: 28 WK), Strain/Sex: F344/MALE, Target Tissue: Type of Lesion: SMALL INTESTINE: CARCINOMA, Dose [Carcinogen]: 100 MG/KG BW DEN ONCE FOLLOWED BY 20 MG/KG BW MNU 4 TIMES AND 0.05% BBN IN DRINKING WATER DURING FIRST 2 WK THEN 40 MG/K","7%, 20%, -185%, not significant"
same,"tumour outcome (control, treated, inhibition, significance)","Carcinogen: DIETHYLNITROSAMINE, 55-18-5, N-METHYL-N-NITROSOUREA, 684-93-5, N-BUTYL-N-(4-HYDROXYBUTYL)NITROSAMINE, 3817-11-6, DIMETHY, Carcinogen: DIETHYLNITROSAMINE, 55-18-5, N-METHYL-N-NITROSOUREA, 684-93-5, N-BUTYL-N-(4-HYDROXYBUTYL)NITROSAMINE, 3817-11-6, DIMETHY, 1% IN THE DIET FOR 24 WK BEGINNING 1 DAY POST CARCINOGEN TREATMENT (STUDY DURATION: 28 WK), Strain/Sex: F344/MALE, Target Tissue: Type of Lesion: THYROID: CARCINOMA, Dose [Carcinogen]: 100 MG/KG BW DEN ONCE FOLLOWED BY 20 MG/KG BW MNU 4 TIMES AND 0.05% BBN IN DRINKING WATER DURING FIRST 2 WK THEN 40 MG/K","7%, 0%, 100%, not significant"
